Laboratory results as given in US10576145B2, “CD200 inhibitors and methods of use thereof” (REGENTS OF THE UNIVERSITY OF MINNESOTA, priority 2014, dated 2020).

System: naïve splenocytes pulsed with purified CD200 protein
Assay: Naive splenocytes pulsed with purified CD200 +/- CD200R antagonist: MDSC expansion and arginase-I
Type: cell-based
Protocol: FIGS. 17A-17B. CD200R antagonist blocks MDSC expansion and tumor suppressive effects. (FIG. 17A) Murine glioma GL261 was incubated with naïve splenocytes in a trans-well plate+/−CD200R antagonist and analyzed for MDSC expansion and cytokine production. (FIG. 17B) Naïve splenocytes were pulsed with purified CD200+/−CD200R antagonist and analyzed for MDSC expansion and arginase-I production. Error bars are ±SEM, statistical significance was determined by one-way ANOVA, post hoc analysis by Dunn's multiple comparison test, *p<0.05, ** p<0.001.
Spleens were harvested homogenized in RPMI media containing 10% FBS, penicillin/streptomycin (100 U/ml), and 0.1 mg/ml Normocin (Invivogen). Cells were then filtered using a 70-micron filter, centrifuged, and resuspended in 5 ml of Ammonium-Chloride-Potassium buffer and incubated for 5 minutes at room temperature to lyse RBCs. […] Following 24 h incubation, CD200R antagonist peptide 6059 was added to the appropriate wells, incubated for 20 min prior to adding 5 μg of purified CD200 protein (Sino Biological) and incubated for a further 72 hrs, harvested and analyzed for anti-CD11b and […] population using an LSR II flow cytometer. […] Following incubation, 50 μl culture supernatant was analyzed for IFN-γ using a flow cytometric bead array according to the manufacturer's protocol (BD Biosciences). […]

Sequence: NTIGDGGCY [Antagonist 6059]
- CD200 induced arginase-I secretion: blocked CD200 induced arginase-I secretion
- CD200 induced MDSC expansion (pre-incubation with antagonist): significantly blocked CD200 induced MDSC expansion
